Data as given in patent US9624209B2, “Substituted phenylureas and phenylamides as vanilloid receptor ligands” (Gruenenthal GmbH, priority 2009, dated 2017).

Tests used:
[1] = biological target: T1, vanilloid receptor 1 (VR1/TRPV1 receptor) (Homo sapiens, UniProt Q8NER1); test: VR1/TRPV1 receptor affinity, NADA stimulus (human); type: cell-based; conditions: N-arachidonoyl dopamine; read-out: Ki (human being) [nM] NADA
T1 construct: expressed in transfected cells; host or cells: CHO K1 cells (ECACC), stably transfected
T1 sequence (Q8NER1 whole entry): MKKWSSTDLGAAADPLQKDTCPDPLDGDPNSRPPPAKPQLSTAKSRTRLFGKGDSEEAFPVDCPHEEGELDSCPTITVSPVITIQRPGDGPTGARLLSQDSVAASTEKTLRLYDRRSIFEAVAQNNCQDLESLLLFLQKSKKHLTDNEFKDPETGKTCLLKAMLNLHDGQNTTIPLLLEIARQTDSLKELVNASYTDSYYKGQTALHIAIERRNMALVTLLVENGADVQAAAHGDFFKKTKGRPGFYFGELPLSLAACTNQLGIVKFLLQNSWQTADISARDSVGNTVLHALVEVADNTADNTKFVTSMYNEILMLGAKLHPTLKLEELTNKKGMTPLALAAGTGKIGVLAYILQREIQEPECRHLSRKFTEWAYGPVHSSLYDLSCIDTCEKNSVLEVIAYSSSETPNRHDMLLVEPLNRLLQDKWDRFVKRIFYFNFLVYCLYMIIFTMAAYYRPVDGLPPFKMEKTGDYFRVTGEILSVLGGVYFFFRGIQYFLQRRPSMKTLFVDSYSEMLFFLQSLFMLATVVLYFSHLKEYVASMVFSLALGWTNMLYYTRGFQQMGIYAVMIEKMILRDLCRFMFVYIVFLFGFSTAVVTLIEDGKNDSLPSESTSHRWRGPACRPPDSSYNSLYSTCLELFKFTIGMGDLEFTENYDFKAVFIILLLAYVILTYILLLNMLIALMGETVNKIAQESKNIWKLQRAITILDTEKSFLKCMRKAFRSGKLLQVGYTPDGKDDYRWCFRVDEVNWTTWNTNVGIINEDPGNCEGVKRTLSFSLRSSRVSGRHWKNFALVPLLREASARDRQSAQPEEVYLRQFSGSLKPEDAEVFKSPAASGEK

[2] = biological target: T1, vanilloid receptor 1 (VR1/TRPV1 receptor); test: VR1 inhibition, 45° C. heat stimulus (human); type: cell-based, human being; set-up: key to IC50 (human being) [nM], 45° C.: result in words: AG=agonist; pAG=partial agonist; NE=no effect

| Structure (SMILES) | Ki [1] | other results |
| --- | --- | --- |
| CC(C(=O)NCc1cc(C(C)(C)C)nn1-c1ccc(F)c(Cl)c1)c1ccc(NS(C)(=O)=O)c(F)c1 (stereo not shown) [Example 18, N-((3-tert-butyl-1-(3-chloro-4-fluorophenyl)-1H-pyrazol-5-yl)methyl)-2-(3-fluoro-4-(methylsulfonamido)phenyl)propanamide] | 0.22 nM | – |
| CC(C(=O)NCc1cc(C(C)(C)C)nn1-c1cccc(Cl)c1)c1cc(F)c(NS(C)(=O)=O)c(F)c1 (stereo not shown) [Example 29, N-((3-tert-butyl-1-(3-chlorophenyl)-1H-pyrazol-5-yl)methyl)-2-(3,5-difluoro-4-(methylsulfonamido)phenyl)propanamide] | 0.08 nM | – |
| CC(C(=O)NCc1cc(C(C)(C)C)nn1-c1cccc(Cl)c1)c1ccc(S(=O)(=O)N(C)C)c(F)c1 (stereo not shown) [Example 56, N-((3-tert-butyl-1-(3-chlorophenyl)-1H-pyrazol-5-yl)methyl)-2-(4-(N,N-dimethylsulfamoyl)-3-fluorophenyl)propanamide] | – | IC50 (human being) [nM], 45° C.: result in words [2]: AG |
| Cc1c(C(F)(F)F)nn(-c2cccc(Cl)c2)c1CNC(=O)C(C)c1ccc(CNS(C)(=O)=O)c(F)c1 (stereo not shown) [Example 134, N-((1-(3-chlorophenyl)-4-methyl-3-(trifluoromethyl)-1H-pyrazol-5-yl)methyl)-2-(3-fluoro-4-(methylsulfonamid-methyl)phenyl)propanamide] | – | IC50 ([2]; read-out: IC50 (human being) [nM], 45° C.): 546 nM |
